Measurements as given in publication PMC8301926 (Biomolecules, 2021).

Assays:
[1] = molecular target: T1, human M1 muscarinic acetylcholine receptor (hM1R) (Homo sapiens, UniProt P11229); assay: M1 (h) functional GPCR assay, agonist effect, intracellular Ca2+; format: cell-based; conditions: 100 µM; % of control response to 100-nM acetylcholine; CHO cells
T1 construct: host or cells: CHO cells

[2] = test system: recombinant human MAO-A (hMAO-A); set-up: method as in earlier work; conditions: ref 27 (Dittman et al., 2004); read-out: IC50, recombinant human MAO-A (literature); cited from earlier work
[3] = molecular target: T2, recombinant human monoamine oxidase A (hMAO-A) (Homo sapiens, UniProt P21397); assay: hMAO-A enzyme kinetics (Lineweaver-Burk, Dixon, secondary plots); format: biochemical; conditions: for Ki: hMAO-A, from secondary plots; for Inhibition Type, hMAO-A: Lineweaver-Burk and Dixon plots
T2 sequence (P21397 1-527): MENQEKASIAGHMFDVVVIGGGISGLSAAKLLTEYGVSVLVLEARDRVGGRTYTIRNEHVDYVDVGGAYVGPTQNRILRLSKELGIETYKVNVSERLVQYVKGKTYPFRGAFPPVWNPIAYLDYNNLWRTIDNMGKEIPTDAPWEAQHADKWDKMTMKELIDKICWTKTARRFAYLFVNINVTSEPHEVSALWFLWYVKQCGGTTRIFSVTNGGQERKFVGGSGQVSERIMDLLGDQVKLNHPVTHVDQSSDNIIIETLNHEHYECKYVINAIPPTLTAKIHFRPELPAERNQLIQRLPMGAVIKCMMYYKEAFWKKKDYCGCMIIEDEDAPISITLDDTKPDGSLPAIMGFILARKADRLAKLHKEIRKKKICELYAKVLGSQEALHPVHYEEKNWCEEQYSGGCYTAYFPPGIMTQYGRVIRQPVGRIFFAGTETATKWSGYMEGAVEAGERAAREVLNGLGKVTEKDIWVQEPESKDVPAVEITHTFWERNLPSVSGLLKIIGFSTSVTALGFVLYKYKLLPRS

[4] = molecular target: T1, human M1 muscarinic acetylcholine receptor (hM1R); assay: M1 (h) functional GPCR assay, antagonist effect, intracellular Ca2+; format: cell-based; conditions: CHO
[5] = molecular target: T3, human M3 muscarinic acetylcholine receptor (hM3R) (Homo sapiens, UniProt P20309); assay: M3 (h) functional GPCR assay, antagonist effect, intracellular Ca2+; format: cell-based; conditions: CHO
T3 construct: host or cells: CHO cells

[6] = molecular target: T4, human M5 muscarinic acetylcholine receptor (hM5R) (Homo sapiens, UniProt P08912); assay: M5 (h) functional GPCR assay, agonist effect, intracellular Ca2+; format: cell-based; conditions: 100 µM; % of control response to 624-nM acetylcholine; RBL cells
T4 construct: host or cells: RBL (rat basophilic leukemic) cells
T4 sequence (P08912 1-532): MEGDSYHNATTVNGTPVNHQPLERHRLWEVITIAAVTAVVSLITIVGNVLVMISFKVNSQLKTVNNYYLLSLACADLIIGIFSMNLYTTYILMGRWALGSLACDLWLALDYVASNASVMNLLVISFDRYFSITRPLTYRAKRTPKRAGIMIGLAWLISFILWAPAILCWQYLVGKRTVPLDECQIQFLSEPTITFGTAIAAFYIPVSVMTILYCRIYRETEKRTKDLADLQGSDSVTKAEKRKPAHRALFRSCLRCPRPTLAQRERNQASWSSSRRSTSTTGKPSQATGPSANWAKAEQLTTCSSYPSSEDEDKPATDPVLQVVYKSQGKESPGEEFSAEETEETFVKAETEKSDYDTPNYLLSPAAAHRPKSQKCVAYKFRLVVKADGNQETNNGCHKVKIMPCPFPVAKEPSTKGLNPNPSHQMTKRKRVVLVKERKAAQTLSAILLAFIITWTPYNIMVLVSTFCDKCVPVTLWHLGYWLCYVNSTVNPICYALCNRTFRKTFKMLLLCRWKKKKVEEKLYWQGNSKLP

[7] = molecular target: T3, human M3 muscarinic acetylcholine receptor (hM3R); assay: M3 (h) functional GPCR assay, agonist effect, intracellular Ca2+; format: cell-based; conditions: 100 µM; % of control response to 1-µM acetylcholine; CHO cells

T3 sequence (P20309 whole entry): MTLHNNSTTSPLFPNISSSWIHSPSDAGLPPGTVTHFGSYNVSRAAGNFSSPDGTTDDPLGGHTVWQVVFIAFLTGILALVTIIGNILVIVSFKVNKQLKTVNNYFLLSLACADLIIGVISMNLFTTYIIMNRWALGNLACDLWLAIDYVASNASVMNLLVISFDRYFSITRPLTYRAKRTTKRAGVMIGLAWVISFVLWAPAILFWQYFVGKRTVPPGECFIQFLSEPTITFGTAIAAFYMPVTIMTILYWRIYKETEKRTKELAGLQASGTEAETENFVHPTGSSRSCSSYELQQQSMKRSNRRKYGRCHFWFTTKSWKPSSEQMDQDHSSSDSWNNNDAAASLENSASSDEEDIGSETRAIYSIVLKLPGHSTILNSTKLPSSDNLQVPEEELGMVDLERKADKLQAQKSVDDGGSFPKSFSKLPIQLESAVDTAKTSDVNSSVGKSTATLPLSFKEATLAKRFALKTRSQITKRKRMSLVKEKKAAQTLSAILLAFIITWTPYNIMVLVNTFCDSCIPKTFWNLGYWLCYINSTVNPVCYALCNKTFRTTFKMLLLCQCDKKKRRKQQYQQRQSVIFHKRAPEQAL
T1 sequence (P11229 whole entry): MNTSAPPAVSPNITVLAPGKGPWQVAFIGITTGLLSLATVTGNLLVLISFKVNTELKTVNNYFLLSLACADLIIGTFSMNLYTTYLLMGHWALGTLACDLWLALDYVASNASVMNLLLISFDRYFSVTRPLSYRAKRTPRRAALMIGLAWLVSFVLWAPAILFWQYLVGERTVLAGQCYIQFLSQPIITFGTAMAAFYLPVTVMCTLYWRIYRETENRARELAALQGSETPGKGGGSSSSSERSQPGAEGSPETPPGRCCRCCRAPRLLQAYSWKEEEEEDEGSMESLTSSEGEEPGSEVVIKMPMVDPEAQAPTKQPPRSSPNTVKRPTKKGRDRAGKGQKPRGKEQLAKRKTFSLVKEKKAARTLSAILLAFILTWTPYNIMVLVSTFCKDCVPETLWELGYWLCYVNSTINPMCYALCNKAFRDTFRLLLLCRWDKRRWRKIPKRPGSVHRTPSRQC

In the case of `Cc1coc2c1C(=O)C(=O)c1c-2ccc2c(C)cccc12` [Tanshinone I], the “% Stimulation, M1” value [1] is listed as 2.5 ± 0.21%, the IC50 [2] is listed as 80 µM and the Ki ([3]; Kic) is listed as 1.69 ± 0.19 µM. For the same molecule, the Ki ([3]; Kiu) was 4.65 ± 0.16 µM, the “Inhibition Type, hMAO-A” value [3] was “Mixed” and the “Inhibition Type, hMAO-A” value ([3]; listed as 1) was “mixed-mode”. The inhibition at 100 µM [4] was 13.8 ± 1.98%, the inhibition at 100 µM [5] was 3.3 ± 11.2% and the “% Stimulation, M5” value [6] was −1.6 ± 0.85%. The “% Stimulation, M3” value [7] was −2.3 ± 0.21%.
